Structures can show the parent of a compound that is named as a salt.
system: not given; test: not given; conditions: not given

melting point	SMILES
189 to 191 °C	CCN1CCN(c2nc(-c3cc(OC)ccc3OC)cc3ccccc23)CC1.Cl
109 to 114 °C	CCC1CCN(c2nc(-c3ccc(OC)cc3)cc3ccccc23)CC1.Cl
137 to 139 °C	COc1ccc(-c2cc3ccccc3c(N3CCOCC3)n2)cc1.Cl
138 to 140 °C	COc1ccc(-c2cc3ccccc3c(NCCc3ccccn3)n2)cc1.Cl
197 to 198 °C (dec.)	CCOc1ccc(-c2cc3ccccc3c(N3CCN(CC)CC3)n2)cc1.Cl.Cl
228 to 230 °C	CCN1CCN(c2nc(-c3ccccc3O)cc3ccccc23)CC1.Cl
122 to 123 °C	CCN1CCN(c2nc(-c3cccc(OC)c3OC)cc3ccccc23)CC1 (as salt: hydrochloride)
149 to 154 °C	CCN1CCN(c2nc(-c3nc(C)c(CCO)s3)cc3ccccc23)CC1 (as salt: hydrochloride)
134 to 140 °C	CCN1CCN(c2nc(-c3ccn(CCO)n3)cc3ccccc23)CC1 (as salt: hydrochloride)
190 to 193 °C	CCN1CCN(c2nc(-c3csc(C4=CCOCC4)c3)cc3ccccc23)CC1 (as salt: hydrochloride)
249 to 253 °C	CCN1CCN(c2nc(-c3ccc(OC)cc3)cc3c(C)cccc23)CC1 (as salt: hydrochloride)
131 to 135 °C	CCN1CCN(c2nc(-c3ccc(OC)cc3)cc3cc(F)ccc23)CC1 (as salt: hydrochloride)
218 to 220 °C	CCN1CCN(c2nc(-c3ccc(OC)cc3)cc3cc(OC)ccc23)CC1 (as salt: hydrochloride)
243 to 246 °C	CCN1CCN(c2nc(-c3ccc(OC)cc3)cc3ccc(C)cc23)CC1 (as salt: hydrochloride)
225 to 229 °C	CCN1CCN(c2nc(-c3ccc(OCCO)cc3)cc3ccc(F)cc23)CC1 (as salt: hydrochloride)
130 to 132 °C	CCN1CCN(c2nc(-c3ccccc3)cc3ccc(OC)cc23)CC1 (as salt: hydrochloride)
178 to 179 °C	CCN1CCN(c2nc(-c3ccccc3OC)cc3ccc(OC)cc23)CC1 (as salt: hydrochloride)
237 to 241 °C	CCN1CCN(c2nc(-c3ccc(OC)cc3)cc3cccc(OC)c23)CC1 (as salt: hydrochloride)
220 to 226 °C	CCCN1CCN(c2nc(-c3ccc(OC)cc3)cc3ccccc23)CC1 (as salt: hydrochloride)
220 to 225 °C	CCCN1CCN(c2nc(-c3ccc(OCCO)cc3)cc3ccccc23)CC1 (as salt: hydrochloride)

melting point	SMILES
220 °C (dec.)	COc1ccc(-c2cc3ccccc3c(N3CCN(C(C)C)CC3)n2)cc1 (as salt: hydrochloride)
157 to 160 °C	CCN1CCN(c2nc(-c3ccc(OC)cc3)cc3cnccc23)CC1 (as salt: hydrochloride)
173 to 175 °C	CCN1CCN(c2nc(-c3ccc(O)cc3)cc3sccc23)CC1 (as salt: hydrochloride)
248 to 253 °C	CCN1CCN(c2nc(-c3ccc(OC)cc3)cc3cccc(C)c23)CC1 (as salt: hydrochloride)
164 to 166 °C	COc1ccc(-c2cc3ccccc3c(N3CCN(CCC#N)CC3)n2)cc1 (as salt: hydrochloride)
124 to 125 °C	CCN1CCCN(c2nc(-c3ccc(OC)cc3)cc3ccccc23)CC1 (as salt: hydrochloride)
190 to 192 °C (dec.)	CCCCc1ccc(-c2cc3ccccc3c(N3CCN(CC)CC3)n2)cc1 (as salt: hydrochloride)
130 to 132 °C	CCN1CCN(c2nc(-c3ccc(OCCO)c(OCCO)c3)cc3ccccc23)CC1 (as salt: hydrochloride)
110 to 112.5 °C (dec.)	CCCC(=O)c1ccc(-c2cc3ccccc3c(N3CCN(CC)CC3)n2)cc1 (as salt: hydrochloride)
138 to 139 °C	CCN1CCN(c2nc(-c3ccc(C4(CCO)CCOCC4)cc3)cc3ccccc23)CC1 (as salt: hydrochloride)
200.5 to 201.5 °C (dec.)	CCN1CCN(c2nc(-c3ccc(OC)cc3)c(Cl)c3ccccc23)CC1 (as salt: hydrochloride)
150.5 to 152 °C	CCN1CCN(c2nc(-c3ccc(C(=O)NC)cc3)cc3ccsc23)CC1 (as salt: hydrochloride)
173 to 176 °C	CCN1CCN(c2nc(-c3ccc(OCCCN)cc3)cc3ccccc23)CC1 (as salt: hydrochloride)
133 to 135 °C	CCN1CCN(c2nc(-c3ccccc3OC)cc3ccccc23)CC1 (as salt: hydrochloride)
134 to 136 °C	COc1ccc(-c2cc3ccccc3c(N3CCN(C)CC3)n2)cc1 (as salt: hydrochloride) [Example 2, 1-(1-methylpiperazin-4-yl)-3-(4-methoxyphenyl)isoquinoline]
147 to 149 °C	CCC(F)c1ccc(-c2cc3ccccc3c(N3CCN(CC)CC3)n2)cc1 (stereo not drawn) (as salt: hydrochloride) [Example 5, 1-(4-ethylpiperazin-1-yl)-3-[4-(1-fluoropropyl)phenyl]isoquinoline Hydrochloride]
125 to 126.5 °C	CCN1CCN(c2nc(-c3ccc(OC)c(OC)c3)cc3ccccc23)CC1 (as salt: hydrochloride) [Example 14, 3-(3,4-dimethoxyphenyl)-1-(4-ethylpiperazin-1-yl)isoquinoline Dihydrochloride]
121 to 123 °C	CCN1CCN(c2nc(-c3cc(OC)cc(OC)c3)cc3ccccc23)CC1 (as salt: hydrochloride) [Example 15, 3-(3,5-dimethoxyphenyl)-1-(4-ethylpiperazin-1-yl)isoquinoline Dihydrochloride]
145 to 147 °C	CCN1CCN(c2nc(-c3ccc(CO)cc3)cc3ccccc23)CC1 (as salt: hydrochloride) [Example 17, 1-(4-ethylpiperazin-1-yl)-3-(4-hydroxymethylphenyl)isoquinoline hydrochloride]
158 to 160 °C	CCN1CCN(c2nc(-c3ccccc3OCCO)cc3ccccc23)CC1 (as salt: hydrochloride) [Example 18, 3-[2-(2-hydroxyethoxy)phenyl]-1-(4-ethylpiperazin-1-yl)isoquinoline hydrochloride]

SMILES	melting point
CN1CCN(c2nc(-c3ccc(OCCO)cc3)cc3ccccc23)CC1 (as salt: hydrochloride) [Example 3, 1-(1-methylpiperazin-4-yl)-3-[4-(2-hydroxyethoxy)phenyl]isoquinoline]	131 to 144 °C
CCN1CCN(c2nc(-c3cccc(OC)c3)cc3ccccc23)CC1 (as salt: hydrochloride) [Example 9, 1-(4-ethylpiperazin-1-yl)-3-(3-methoxyphenyl)isoquinone Dihydrochloride]	108 to 110 °C
CCN1CCN(c2nc(-c3ccc(OC)cc3OC)cc3ccccc23)CC1 (as salt: hydrochloride) [Example 12, 3-(2,4-dimethoxyphenyl)-1-(4-ethylpiperazin-1-yl)isoquinolin Dihydrochloride]	145 to 148 °C

molecular target: T1, serotonin 2 receptor (Rattus norvegicus, UniProt P14842); test: Binding test on [3H] ketanserin, cerebral cortex receptor fraction; design: species or system SD rats; conditions: 0.3 nM [3H] ketanserin, 37° C. 15 min, read-out: 5HT2
T1 construct: To the receptor fraction of the cerebral cortex were added a test compound and 0.3 nM of [^3H] ketanserin; from tissue; host or cells: rat cerebral cortex membrane fraction
T1 sequence (P14842 whole entry): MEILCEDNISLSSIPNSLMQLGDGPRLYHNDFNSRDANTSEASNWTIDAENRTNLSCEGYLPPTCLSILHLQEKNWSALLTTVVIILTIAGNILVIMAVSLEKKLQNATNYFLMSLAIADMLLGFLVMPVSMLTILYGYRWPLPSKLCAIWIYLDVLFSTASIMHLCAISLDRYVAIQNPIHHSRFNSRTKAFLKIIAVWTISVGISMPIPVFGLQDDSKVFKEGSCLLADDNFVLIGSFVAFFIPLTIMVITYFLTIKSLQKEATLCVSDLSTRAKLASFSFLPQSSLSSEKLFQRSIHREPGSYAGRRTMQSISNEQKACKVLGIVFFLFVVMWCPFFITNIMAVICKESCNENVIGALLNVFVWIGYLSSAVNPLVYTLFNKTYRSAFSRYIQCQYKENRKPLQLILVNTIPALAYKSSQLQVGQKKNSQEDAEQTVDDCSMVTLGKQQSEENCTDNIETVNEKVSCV

Ki [nM]	SMILES
60.1	CCN1CCN(c2nc(-c3ccc(OC)cc3)cc3ccsc23)CC1 [Example 459, 7-(4-ethylpiperazin-1-yl)-5-(4-methoxyphenyl)thieno[2,3-c]pyridine dihydrochloride]
175	CCN1CCN(c2nc(-c3ccc(OCC4OCCO4)cc3)cc3sccc23)CC1 [Example 460, 4-(4-ethylpiperazin-1-yl)-6-[4-(1,3-dioxolan-2-yl)methoxyphenyl]thieno[3,2-c]pyridine oxalate]
2.84	CCN1CCN(c2nc(-c3ccc(OCCCO)cc3)cc3sccc23)CC1 [Example 462, 4-(4-ethylpiperazin-1-yl)-6-[4-(3-hydroxypropoxy)phenyl]thieno[3,2-c]pyridine dihydrochloride]
1.4	CCN1CCN(c2nc(-c3ccc(C#CCO)cc3)cc3sccc23)CC1 [Example 464, 4-(4-ethylpiperazin-1-yl)-6-[4-(3-hydroxy-1-propynyl)phenyl]thieno[3,2-c]pyridine pyridine]
1	CCN1CCN(c2nc(-c3ccc(C#CC(C)(C)O)cc3)cc3sccc23)CC1 [Example 466, 4-(4-ethylpiperazin-1-yl)-6-[4-(3-hydroxy-3-methyl-1-butynyl)phenyl]thieno[3,2-c]pyridine oxalate]
93.1	CCN1CCN(c2nc(-c3ccc(OC)cc3)cc3ccoc23)CC1 [Example 467, 7-(4-ethylpiperazin-1-yl)-5-(4-methoxyphenyl)furo[2,3-c]pyridine dihydrochloride]

SMILES	Ki [nM]
CCN1CCN(c2nc(-c3ccc(CCCO)cc3)cc3sccc23)CC1 [Example 465, 4-(4-ethylpiperazin-1-yl)-6-[4-(3-hydroxypropy)phenyl]thieno[3,2-c]pyridine dihydrochloride]	7.11

molecular target: T2, serotonin 1A receptor (Rattus norvegicus, UniProt P19327); test: Binding test on [3H] 8-hydroxy-dipropylaminotetralin, hippocampus receptor fraction; design: species or system SD rats; conditions: rat hippocampus receptor fraction, 0.5 nM [3H] 8-OH-DPAT, room temperature 30 min; read-out: 5HT1
T2 construct: To the receptor fraction of the hippocampus were added a test compound and 0.5 nM of [^3H]; 8-hydroxy-dipropylaminotetralin; from tissue; host or cells: rat hippocampus membrane fraction
T2 sequence (P19327 1-422): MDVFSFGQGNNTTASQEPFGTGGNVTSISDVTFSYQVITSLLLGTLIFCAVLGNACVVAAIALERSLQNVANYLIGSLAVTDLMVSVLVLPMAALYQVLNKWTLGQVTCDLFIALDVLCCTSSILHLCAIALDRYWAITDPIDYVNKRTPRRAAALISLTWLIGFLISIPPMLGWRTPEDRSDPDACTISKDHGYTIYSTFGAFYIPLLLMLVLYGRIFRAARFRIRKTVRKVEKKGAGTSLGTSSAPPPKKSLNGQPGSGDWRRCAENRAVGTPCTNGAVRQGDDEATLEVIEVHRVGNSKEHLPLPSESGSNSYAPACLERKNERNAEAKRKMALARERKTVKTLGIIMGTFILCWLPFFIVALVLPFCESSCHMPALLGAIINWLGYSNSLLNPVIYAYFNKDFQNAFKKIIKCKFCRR

Ki [nM]	SMILES
108	CCN1CCN(c2nc(-c3ccc(OC)cc3)cc3ccsc23)CC1 [Example 459, 7-(4-ethylpiperazin-1-yl)-5-(4-methoxyphenyl)thieno[2,3-c]pyridine dihydrochloride]
5.32	CCN1CCN(c2nc(-c3ccc(OCC4OCCO4)cc3)cc3sccc23)CC1 [Example 460, 4-(4-ethylpiperazin-1-yl)-6-[4-(1,3-dioxolan-2-yl)methoxyphenyl]thieno[3,2-c]pyridine oxalate]
4.83	CCN1CCN(c2nc(-c3ccc(OCCCO)cc3)cc3sccc23)CC1 [Example 462, 4-(4-ethylpiperazin-1-yl)-6-[4-(3-hydroxypropoxy)phenyl]thieno[3,2-c]pyridine dihydrochloride]
47.8	CCN1CCN(c2nc(-c3ccc(C#CCO)cc3)cc3sccc23)CC1 [Example 464, 4-(4-ethylpiperazin-1-yl)-6-[4-(3-hydroxy-1-propynyl)phenyl]thieno[3,2-c]pyridine pyridine]
49.8	CCN1CCN(c2nc(-c3ccc(C#CC(C)(C)O)cc3)cc3sccc23)CC1 [Example 466, 4-(4-ethylpiperazin-1-yl)-6-[4-(3-hydroxy-3-methyl-1-butynyl)phenyl]thieno[3,2-c]pyridine oxalate]
20.6	CCN1CCN(c2nc(-c3ccc(OC)cc3)cc3ccoc23)CC1 [Example 467, 7-(4-ethylpiperazin-1-yl)-5-(4-methoxyphenyl)furo[2,3-c]pyridine dihydrochloride]

SMILES	Ki [nM]
CCN1CCN(c2nc(-c3ccc(CCCO)cc3)cc3sccc23)CC1 [Example 465, 4-(4-ethylpiperazin-1-yl)-6-[4-(3-hydroxypropy)phenyl]thieno[3,2-c]pyridine dihydrochloride]	6.28

— US6875761B2 (Eisai Co., Ltd., priority 1997, dated 2005)
